Test results from ChEMBL document CHEMBL2203261, “Selective thyromimetics using receptor and tissue selectivity approaches: prospects for dyslipidemia” (J Med Chem, 2012).

Columns and labels:
[1] = molecular target: T1, Thyroid hormone receptor alpha (Homo sapiens, UniProt P10827); experiment: Binding affinity to TRalpha1
T1 sequence (P10827 whole entry): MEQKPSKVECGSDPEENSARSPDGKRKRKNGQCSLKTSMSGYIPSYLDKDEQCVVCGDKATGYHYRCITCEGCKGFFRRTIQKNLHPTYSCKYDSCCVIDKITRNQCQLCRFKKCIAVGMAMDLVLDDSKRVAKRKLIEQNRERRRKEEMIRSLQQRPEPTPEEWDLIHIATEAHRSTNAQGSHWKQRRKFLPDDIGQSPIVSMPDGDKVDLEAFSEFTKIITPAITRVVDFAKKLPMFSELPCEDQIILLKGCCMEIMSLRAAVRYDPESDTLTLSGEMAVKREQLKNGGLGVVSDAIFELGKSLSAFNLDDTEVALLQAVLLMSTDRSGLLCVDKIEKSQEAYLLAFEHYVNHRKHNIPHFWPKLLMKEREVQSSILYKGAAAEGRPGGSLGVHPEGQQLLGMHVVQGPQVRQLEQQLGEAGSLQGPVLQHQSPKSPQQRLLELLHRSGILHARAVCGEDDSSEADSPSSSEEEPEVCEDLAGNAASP

[2] = molecular target: T2, Thyroid hormone receptor beta (Homo sapiens, UniProt P10828); experiment: Binding affinity to TRbeta1
T2 sequence (P10828 whole entry): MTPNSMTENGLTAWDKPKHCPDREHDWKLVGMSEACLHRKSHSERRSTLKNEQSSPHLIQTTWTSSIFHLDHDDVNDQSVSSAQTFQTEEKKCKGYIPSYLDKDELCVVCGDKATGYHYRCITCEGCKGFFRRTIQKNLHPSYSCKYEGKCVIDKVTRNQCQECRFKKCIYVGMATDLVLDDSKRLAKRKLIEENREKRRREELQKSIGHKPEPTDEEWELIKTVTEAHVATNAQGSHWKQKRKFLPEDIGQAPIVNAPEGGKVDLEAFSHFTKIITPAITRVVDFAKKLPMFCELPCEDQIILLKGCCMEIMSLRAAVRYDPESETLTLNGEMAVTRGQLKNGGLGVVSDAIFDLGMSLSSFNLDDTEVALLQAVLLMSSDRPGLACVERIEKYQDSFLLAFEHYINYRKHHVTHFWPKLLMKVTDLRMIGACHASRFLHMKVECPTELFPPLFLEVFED

Homo sapiens [3] = experiment: Antidyslipidemic activity in obese, hypercholesterolemic patient assessed as reduction in LDL cholesterol at 100 ug administered QD for 2 weeks relative to control; format: functional; design: scale not given: the % may be the effect or the level left
Rattus norvegicus = experiment: Antidyslipidemic activity in po dosed cholesterol fed rat assessed as reduction in cholesterol level administered QD; format: functional
Homo sapiens [4] = experiment: Antidyslipidemic activity in human assessed as reduction in LDL cholesterol at 100 ug administered QD relative to control; format: functional; design: scale not given: the % may be the effect or the level left

SMILES | EC50 [1] | EC50 [2] | other results
O=C(O)Cc1cc(Cl)c(Oc2ccc(O)c(C(=O)NCC(c3ccccc3)c3ccccc3)c2)c(Cl)c1 | 18 nM | 0.47 nM | –
O=C(O)Cc1cc(Cl)c(Oc2ccc(O)c(-c3ccccc3)c2)c(Cl)c1 | 152 nM | 2.9 nM | –
CC(C)c1cc(Oc2c(Br)cc(NC(=O)CC(=O)O)cc2Br)ccc1O [EPROTIROME] | – | – | Activity (Homo sapiens [3]): 40%
Cc1cc(OCP2(=O)OCC[C@@H](c3cccc(Cl)c3)O2)cc(C)c1Cc1ccc(O)c(C(C)C)c1 (stereo partly drawn) [MB07811] | – | – | Ki [2]: 600 nM; ED50 (Rattus norvegicus): 0.4 mg/kg
Cc1cc(OCC(=O)O)cc(C)c1Cc1ccc(O)c(C(C)C)c1 [SOBETIROME] | – | – | Activity (Homo sapiens [4]): 41%
